Test results taken from US20260285850A1, “SUBSTITUTED OXAZOLIDINONES AND IMIDAZOLINONES AS HERBICIDES” (FMC CORPORATION, priority 2023, published 2026).

Assays:
Assay type in all cases: in vivo
[1] = system: sedge, umbrella (small-flower umbrella sedge, Cyperus difformis); test: Test B flooded paddy test, visual plant response rating 0-100; details: 250 g ai/ha, Flood, applied to paddy water, evaluated after 13 days
In short: (§1)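 2-leaf plants; flood 3 cm over soil; compound dosed into paddy water; depth kept constant; greenhouse 13 d; visual scoring vs controls. Dash = no result.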

[2] = system: barnyardgrass (Echinochloa crusgalli); test: as above; details: 250 g ai/ha, Flood, applied to paddy water, evaluated after 13 days
In short: as §1

[3] = system: ducksalad (Heteranthera limosa); test: as above; details: 250 g ai/ha, Flood, applied to paddy water, evaluated after 13 days
In short: as §1

rice (Oryza sativa) = test: as above; details: 250 g ai/ha, Flood, applied to paddy water, evaluated after 13 days
In short: as §1

[4] = system: palmer (palmer amaranth, palmer pigweed, Amaranthus palmeri); test: Test A postemergence application, visual injury rating 0-100
In short: (§2)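 Plants in a loam and sand soil blend were treated with each test chemical, in a non-phytotoxic solvent system including surfactant, either sprayed on seeded soil before emergence or applied after emergence at the one- to two-leaf stage. Ten days later in the greenhouse, plants were compared with untreated controls and visually rated from 0 (no effect) to 100 (complete control).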

soybean (Glycine max) [5] = test: as above
In short: as §2

[6] = system: galium (catchweed bedstraw, Galium aparine); test: as above
In short: as §2

[7] = system: barnyardgrass (Echinochloa crus-galli); test: as above
In short: as §2

[8] = system: horseweed (Erigeron canadensis); test: as above
In short: as §2

[9] = system: green foxtail (Setaria viridis); test: as above
In short: as §2

corn (Zea mays) [10] = test: as above
In short: as §2

[11] = system: blackgrass (Alopecurus myosuroides); test: as above
In short: as §2

[12] = system: oat, wild (wild oat, Avena fatua); test: as above
In short: as §2

[13] = system: wheat (Triticum aestivum); test: as above
In short: as §2

[14] = system: ragweed (common ragweed, Ambrosia artemisiifolia); test: as above
In short: as §2

kochia (Bassia scoparia) [15] = test: as above
In short: as §2

[16] = system: ryegrass, Italian (italian ryegrass, Lolium multiflorum); test: as above
In short: as §2

[17] = system: palmer (palmer amaranth, palmer pigweed, Amaranthus palmeri); test: Test A preemergence soil spray, visual injury rating 0-100; details: 62 g ai/ha, 10 days, 0 = no effect, 100 = complete control
In short: as §2

soybean (Glycine max) [18] = test: as above; details: 10 days
In short: as §2

[19] = system: barnyardgrass (Echinochloa crus-galli); test: as above; details: 10 days
In short: as §2

[20] = system: green foxtail (Setaria viridis); test: as above; details: 10 days
In short: as §2

corn (Zea mays) [21] = test: as above; details: 10 days
In short: as §2

[22] = system: blackgrass (Alopecurus myosuroides); test: as above; details: 10 days
In short: as §2

[23] = system: oat, wild (wild oat, Avena fatua); test: as above; details: 10 days
In short: as §2

[24] = system: wheat (Triticum aestivum); test: as above; details: 10 days
In short: as §2

[25] = system: ragweed (common ragweed, Ambrosia artemisiifolia); test: as above; details: 10 days
In short: as §2

kochia (Bassia scoparia) [26] = test: as above; details: 10 days
In short: as §2

[27] = system: ryegrass, Italian (italian ryegrass, Lolium multiflorum); test: as above; details: 10 days
In short: as §2

[28] = 62 g ai/ha, postemergence, 10 days, 0 = no effect, 100 = complete control
[29] = Postemergence, 16 g ai/ha, greenhouse 10 days, 0 no effect, 100 complete control
[30] = 62 g ai/ha, 0 = no effect, 100 = complete control

## COC(=O)C1=CCC(NC(=O)C2(C)CN(c3cc(F)cc(Cl)c3)C(=O)O2)C1 (stereo not drawn) [Compound 140]
[1]
  Plant response rating, Sedge, Umbrella (0 to 100 scale, 0 is no effect and 100 is complete control): 100
[2]
  Plant response rating, Barnyardgrass (0 to 100 scale, 0 is no effect and 100 is complete control): 85
[3]
  Plant response rating, Ducksalad (0 to 100 scale, 0 is no effect and 100 is complete control): 65
Rice (Oryza sativa)
  Plant response rating, Rice (0 to 100 scale, 0 is no effect and 100 is complete control): 65
[4]; [28]
  Pigweed, Palmer plant response rating (0-100): 80
[4]; [29]
  Pigweed, Palmer plant response rating (0 to 100 scale): 60
Soybean (Glycine max) [5]; [28]
  Soybean plant response rating (0-100): 70
Soybean (Glycine max) [5]; [29]
  Soybean plant response rating (0 to 100 scale): 70
[6]; [28]
  Galium plant response rating (0-100): 90
[6]; [29]
  Galium plant response rating (0 to 100 scale): 70
[7]; [28]
  Barnyardgrass plant response rating (0-100): 100
[7]; [29]
  Barnyardgrass plant response rating (0 to 100 scale): 100
[8]; [28]
  Horseweed plant response rating (0-100): 90
[8]; [29]
  Horseweed plant response rating (0 to 100 scale): 80
[9]; [28]
  Foxtail, Green plant response rating (0-100): 90
[9]; [29]
  Foxtail, Green plant response rating (0 to 100 scale): 90
Corn (Zea mays) [10]; [28]
  Corn plant response rating (0-100): 100
Corn (Zea mays) [10]; [29]
  Corn plant response rating (0 to 100 scale): 100
[11]; [28]
  Blackgrass plant response rating (0-100): 100
[11]; [29]
  Blackgrass plant response rating (0 to 100 scale): 90
[12]; [28]
  Oat, Wild plant response rating (0-100): 90
[12]; [29]
  Oat, Wild plant response rating (0 to 100 scale): 60
[13]; [28]
  Wheat plant response rating (0-100): 90
[13]; [29]
  Wheat plant response rating (0 to 100 scale): 80
[14]; [28]
  Ragweed plant response rating (0-100): 70
[14]; [29]
  Ragweed plant response rating (0 to 100 scale): 50
Kochia (Bassia scoparia) [15]; [28]
  Kochia plant response rating (0-100): 90
Kochia (Bassia scoparia) [15]; [29]
  Kochia plant response rating (0 to 100 scale): 90
[16]; [28]
  Ryegrass, Italian plant response rating (0-100): 80
[16]; [29]
  Ryegrass, Italian plant response rating (0 to 100 scale): 60
[17]
  Pigweed, Palmer plant response rating (0-100): 90
Soybean (Glycine max) [18]; 16 g ai/ha, 0 to 100 scale
  Soybean plant response rating: 0
Soybean (Glycine max) [18]; [30]
  Soybean plant response rating (0-100): 80
[19]; 16 g ai/ha, 0 to 100 scale
  Barnyardgrass plant response rating: 50
[19]; [30]
  Barnyardgrass plant response rating (0-100): 100
[20]; 16 g ai/ha, 0 to 100 scale
  Foxtail, Green plant response rating: 80
[20]; [30]
  Foxtail, Green plant response rating (0-100): 90
Corn (Zea mays) [21]; 16 g ai/ha, 0 to 100 scale
  Corn plant response rating: 10
Corn (Zea mays) [21]; [30]
  Corn plant response rating (0-100): 60
[22]; 16 g ai/ha, 0 to 100 scale
  Blackgrass plant response rating: 0
[22]; [30]
  Blackgrass plant response rating (0-100): 50
[23]; 16 g ai/ha, 0 to 100 scale
  Oat, Wild plant response rating: 20
[23]; [30]
  Oat, Wild plant response rating (0-100): 20
[24]; 16 g ai/ha, 0 to 100 scale
  Wheat plant response rating: 40
[24]; [30]
  Wheat plant response rating (0-100): 80
[25]; 16 g ai/ha, 0 to 100 scale
  Ragweed plant response rating: 0
[25]; [30]
  Ragweed plant response rating (0-100): 0
Kochia (Bassia scoparia) [26]; 16 g ai/ha, 0 to 100 scale
  Kochia plant response rating: 50
Kochia (Bassia scoparia) [26]; [30]
  Kochia plant response rating (0-100): 100
[27]; 16 g ai/ha, 0 to 100 scale
  Ryegrass, Italian plant response rating: 50
[27]; [30]
  Ryegrass, Italian plant response rating (0-100): 90
